Measurements published in patent US6936266B2, “Desquamation/epidermal renewal of the skin and/or combating skin aging” (L'Oreal, priority 1998, dated 2005).

Tested on: differentiated human keratinocytes
Assay: in vitro screening of an active agent on desquamation (release of corneocytes, cellular detachment index by flow cytometry)
Type: cell-based
Conditions: for % of activity relative to the control (cellular detachment index, difference between T60 and T0): compounds at 5 × 10^−5M, 60 minutes after addition, control = identical culture in the absence of compound
Protocol: This test of in vitro screening of an active agent on desquamation was carried out on differentiated human keratinocytes. The principle of the test was based on the fact that desquamation induces the release of corneocytes. The desquamating power of the product tested will be proportionately greater the larger the number of corneocytes released.
The test procedure was as follows: starting with human skin biopsies, the keratinocytes obtained by separation of the epidermis were dissociated by enzymatic action with trypsin and were cultured at a concentration of 2×10^5 cells/ml. Growth and differentiation of the keratinocytes were obtained by culturing for 10 to 20 days in a specific medium. Next, after removing the culture medium, the activity of the test product was evaluated. To do this, two samples were taken at T0 and T60, i.e., just before adding the product and 60 minutes after this addition. The samples thus taken were analyzed with a flow cytometer in order to count the corneocyte population. The flow cytometer made it possible to distinguish the corneocyte and keratinocyte populations by treatment with acridine orange, which is specific for cellular DNA.
The cellular detachment index was determined by the difference between T60 and T0.
The test was carried out with cinnamic acid at a concentration of 5×10^−5M.
The results are given as a % of activity relative to the control consisting of an identical culture in the absence of compound.

## CCCCCCCC(=O)c1ccc(O)c(C(=O)O)c1 [Reference, 2-hydroxy-5-octanoylbenzoic acid, reference compound]
  % of activity relative to the control (cellular detachment index, difference between T60 and T0): 96.6%

## O=C(O)C=Cc1ccccc1 [Cinnamic acid]
Cinnamic acid at 5×10^−5M
  activity on the cellular detachment: high
  % of activity relative to the control (cellular detachment index, difference between T60 and T0): 59.2%
